In PMC6748986, “Potent modulation of the CepR quorum sensing receptor and virulence in a Burkholderia cepacia complex member using non-native lactone ligands” (Scientific Reports, 2019):
Read-outs that look alike come from different tables or passages of the source.

Legend:
[1] = biological target: T1, CepR (Burkholderia multivorans, UniProt Q93PF7); assay: CepR agonism in B. multivorans cepI::lacZ reporter (Bm-reporter); format: cell-based; details: for activation at 100 µM: read-out: Act%; for Emax: read-out: Maximal Activation (%)
T1 sequence (Q93PF7 1-239): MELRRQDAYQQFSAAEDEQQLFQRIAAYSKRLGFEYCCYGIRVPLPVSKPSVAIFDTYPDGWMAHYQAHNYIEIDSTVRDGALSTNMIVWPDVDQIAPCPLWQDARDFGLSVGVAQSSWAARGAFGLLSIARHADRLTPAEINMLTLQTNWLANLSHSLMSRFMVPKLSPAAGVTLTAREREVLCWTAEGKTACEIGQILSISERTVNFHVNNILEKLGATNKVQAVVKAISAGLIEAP
Description: We next sought to assess if the CepR modulators identified in the Ec-reporter maintained their activities in a member of the Bcc. For these studies, we generated a B. multivorans cepI::lacZ reporter organism (Bm-reporter) using standard allelic exchange methods (see Methods). Along with B. cenocepacia, B. multivorans is one of the most commonly isolated Bcc members[6],[44]. We note that small molecules must contend with a different cellular environment in the native organism relative to E. coli[48]; however, as both CepR and the cepI promoter are highly conserved among Bcc species (Fig. S3), we reasoned that the majority of compounds identified in the Ec-reporter (containing B. cenocepacia versions of the cepI promoter and the cepR gene) would maintain their relative activity profiles in CepR in B. multivorans. […] Similar to the Ec-reporter, CepR binding to the cepI promoter then induces β-galactosidase production, allowing for the quantitation of CepR activity. Using the Bm-reporter organism, we observed robust activity for CepR in response to C8-AHL (EC50 = 0.7 nM, Table 3).
The B. multivorans cepI::lacZ strain was used to obtain dose-response data for CepR in response to synthetic AHLs. Overnight cultures of B. multivorans cepI::lacZ were grown in LB medium at 37 °C with shaking (225 rpm). Aliquots (200 μL) of a 1:10 dilution of this overnight culture were plated into 96-well plates containing varying concentrations of compound, and then grown for 4 h at 37 °C with shaking (225 rpm). β-galactosidase production was measured as described above for E. coli, with the following changes: permeabilized cells were incubated at 25 °C with substrate CPRG for ~10 min until positive control wells developed a deep red color. For agonism assays, synthetic compound was screened alongside and compared to the native ligand, C8-AHL (100 μM). For antagonism assays, the concentration of native ligand utilized was 5 nM (approximately equal to twice its EC50 value).

[2] = test system: B. multivorans ATCC17616; assay: C. elegans survival assay, B. multivorans infection; format: in vivo; details: C. elegans N2 infected with B. multivorans; for Effect on survival of Bm-infected worms (antagonists): 50 μM for antagonists; for Effect on survival of Bm-infected worms (agonists): 1 μM for agonists, relative to untreated worms
Description: We next assessed the effects of our lead CepR modulators on exacerbating or alleviating infections by a Bcc member using the nematode C. elegans as a model of pathogenicity. We infected N2 nematodes with B. multivorans ATCC17616 in the presence of compound, and assessed survival of worms over time (see Methods)[13],[35],[53]. None of the compounds tested caused measurable toxicity effects in uninfected worms under these conditions. […] Our results here, using chemical CepR modulators, appear to replicate these effects in B. multivorans nematode infections.
The C. elegans survival assay was based on previously reported procedures[35],[65]. To synchronize worms, eggs were harvested by hypochlorite bleaching (5 min in 1 mL 5% bleach, 0.25 mL 5 M NaOH, 3.75 mL H2O), and grown on Nematode Growth Media (NGM) + E. coli OP50 at 21 °C. B. multivorans was grown overnight with the compound of interest in LB medium (1 μM for agonists, 50 μM for antagonists), and then the overnight culture was centrifuged, resuspended in the assay medium, standardized to OD600 = 0.8, and 25 μL of this culture was used per condition. CFUs of these standardized cultures were used to confirm that bacteria numbers were relatively the same. For the survival assay, synchronized worms (L4 stage) were suspended in liquid NGM media containing bacteria and compound in 96-well plates (100 μL total volume). […] Plates were incubated at 25 °C, after which they were analyzed by a dissecting microscope. The fraction of dead worms was determined by scoring the number of dead worms and the total number of worms in each well. At least 30 nematodes were used for each well, and each assay was performed at least in duplicate on a single day (n ≥ 60). Survival assays were then repeated at least once on different days to verify patterns. Compound effect on worm survival rarely varied between replicates, but the overall worm susceptibility varied among assays. Kaplan-Meier survival curves were calculated using GraphPad Prism (v. 7.0) software.

Compound: O=C(Cc1cccc(C(F)(F)F)c1)N[C@H]1CCOC1=O [Compound E3]
- activation at 100 µM [1]: 3.1%
- Effect on survival of Bm-infected worms (antagonists) [2]: prolonged nematode survival

Compound: O=C(CC1CCCC1)N[C@H]1CCOC1=O [Compound B12]
- Effect on survival of Bm-infected worms (antagonists) [2]: prolonged nematode survival

Compound: O=C(Cc1cccc(Br)c1)N[C@H]1CCOC1=O [Compound C8]
- Effect on survival of Bm-infected worms (antagonists) [2]: prolonged nematode survival

Compound: CCCCCCCC(=O)N[C@H]1CCOC1=O [Compound C8-AHL, N-octanoyl L-homoserine lactone, reference compound]
- EC50 [1]: 0.7 nM
- activation at 100 µM [1]: 100%
- Emax [1]: 100%
- Effect on survival of Bm-infected worms (agonists) [2]: significantly increased worm death

Compound: O=C(CCc1ccc(C(F)(F)F)cc1)N[C@H]1CCOC1=O [Compound E35]
- EC50 [1]: 0.022 nM
- activation at 100 µM [1]: 98%
- Emax [1]: 98%

Compound: O=C(CCc1ccc(I)cc1)N[C@H]1CCOC1=O [Compound E32]
- EC50 [1]: 0.08 nM
- activation at 100 µM [1]: 110%
- Emax [1]: 110%

Compound: O=C(CCc1ccc([N+](=O)[O-])cc1)N[C@H]1CCOC1=O [Compound E37]
- EC50 [1]: 0.0025 nM
- EC50 fold lower than C8-AHL ([1]; Bm-reporter): ~ 250 fold
- activation at 100 µM [1]: 91%
- Emax [1]: 91%
- Effect on survival of Bm-infected worms (agonists) [2]: promoted worm killing

Compound: CCCCCC(O)CC(=O)N[C@H]1CCOC1=O (some centres unmarked) [3’OH-C8-AHL, reference compound]
- EC50 ([1]; Bm-reporter, agonism dose-response, read-out: EC50): ≥ 980 nM
- Maximal Activation (%) ([1]; Bm-reporter, activity for 100 μM C8-AHL set to 100%, error ±10%): 78%
- Act% ([1]; Table S4, Bm-reporter, screening conc. 100 μM): 78%
- Effect on survival of Bm-infected worms (agonists) [2]: did not appear to affect worm survival
